This is an account of results in patent publication US20100286186A1, “NOVEL DICARBOXYLIC ACID LINKED AMINO ACID AND PEPTIDE PRODRUGS OF OPIOIDS AND USES THEREOF” (Shire LLC, priority 2009, published 2010).

Data set [1] can be described thus: Comparative oral bioavailability of oxycodone from various dicarboxylate bridged amino acid prodrugs in dogs (nine-way crossover). The data set is classed as in vivo, dog. Particulars: 1 mg/kg oxycodone free base; for Cmax of oxycodone / T50% Cmax of oxycodone / AUC0-t of oxycodone: mean (±sd); for AUC0-t of oxycodone: t = last quantifiable time point.
A short description of data set [2]: In vitro stability of dicarboxylate amino acid ester prodrugs in simulated gastric and intestinal juice, distilled water and pH 10 buffer (HPLC). To be noted: for Simulated gastric fluid (pH 1.1): % remaining after 2 h/37° C.: pH 1.1, 2 h; for Distilled water (pH 5.9): % remaining after 2 h/20° C.: pH 5.9, 2 h; for Simulated intestinal fluid (pH 6.8): % remaining after 2 h/37° C.: pH 6.8, 2 h; for pH 10.0 buffer: % remaining after 2 h/20° C.: pH 10.0, 2 h.

Data set [3] in a line: Plasma pharmacokinetics of meptazinol dicarboxylate linked prodrugs after oral gavage to cynomolgus monkeys. The data set is classed as in vivo, cynomolgus monkey. Particulars: 1 mg meptazinol base equivalents/kg.
Data set [4] can be described thus: Plasma pharmacokinetics of meptazinol dicarboxylate linked prodrugs after oral gavage to dogs. The data set is classed as in vivo, dog. Particulars: 1 mg meptazinol base equivalents/kg; for Dog Cmax (plasma meptazinol) / Dog Cmax (plasma prodrug levels, in brackets) / Cmax: oral gavage of prodrug; for Dog Cmax (plasma meptazinol): meptazinol level; for Dog Cmax (plasma prodrug levels, in brackets) / Cmax: prodrug level, BLQ = below 0.5 ng/mL; for Cmax: beagle, plasma, read-out: Dog Cmax (plasma prodrug levels, in brackets).

The nature of data set [5]: Stability of meptazinol dicarboxylate bridged amino acid prodrugs in simulated gastric and intestinal juice and pH 7.4 buffer. The data set is classed as physicochemical. The source says: Initially the inherent chemical and biological stability of various dicarboxylate bridged amino acid prodrugs of meptazinol, was investigated under the conditions prevailing in the GI tract. Premature hydrolysis of the prodrug in the gut lumen prior to absorption would reduce the opportunity for transient protection of the drug during its passage though the liver and the desired reduction in first pass metabolism.
The remaining concentrations of the prodrug (and also drug released) were then assayed by HPLC. Additionally their chemical stability was evaluated in pH 7.4 buffer for 2 h 37° C.

In data set [6] the test system is gut motility in the rat. The data set is described as follows: Charcoal propulsion test of GI motility in the rat. The data set is classed as in vivo. To be noted: oral. How it is done:
Test treatments were administered to groups of up to 10 rats fasted overnight prior to the test.
Test treatments were administered orally 60 minutes prior to a 2.0 mL oral dose of a 10% suspension of charcoal in 5% gum arabic. Thirty minutes after dosing with charcoal, the rats were sacrificed and the entire gastro-intestinal tract quickly and carefully removed. The distance the charcoal meal had traveled from the pyloric sphincter toward the caecum was measured and expressed as a percentage of both the total gut length and the length of the small intestine.

The mark [7] stands for this setting: cynomolgus monkey, oral gavage of prodrug, prodrug level, BLQ = below 0.5 ng/mL.

As for `COc1ccc2c3c1OC1C(OC(=O)CCC(=O)N[C@@H](CCSC)C(=O)O)=CC[C@@]4(O)[C@@H](C2)N(C)CC[C@]314` (stereo partly drawn) [Oxycodone-Succinyl-Met Enol Ester, oxycodone-[succinyl-(S)-methionine]enol ester], in data set [1], the “F % (absolute oral bioavailability of oxycodone)” value was 49.8%, the Cmax of oxycodone is given as 68.3 (±21.1) ng/mL, the “T50% Cmax of oxycodone” value was 2.3 (±0.8) h and the AUC0-t of oxycodone is given as 180.6 (±37.7) h. * ng/mL. Besides, in data set [2], the “Simulated gastric fluid (pH 1.1): % remaining after 2 h/37° C.” value is given as 99%, the “Distilled water (pH 5.9): % remaining after 2 h/20° C.” value (shortened to “Distilled water (pH 5.9): % remaining”) is on record as 100%, the “Simulated intestinal fluid (pH 6.8): % remaining after 2 h/37° C.” value is on record as 84% and the “pH 10.0 buffer: % remaining after 2 h/20° C.” value (“pH 10.0 buffer: % remaining” for short) was 58%.
Regarding `CC[C@H](C)[C@H](NC(=O)CCC(=O)OC1=CC[C@@]2(O)[C@H]3Cc4ccc(OC)c5c4[C@@]2(CCN3C)[C@H]1O5)C(=O)O` [Oxycodone-Succinyl-Ile Enol Ester, oxycodone-[succinyl-(S)-isoleucine] enol ester], in data set [1], the “F % (absolute oral bioavailability of oxycodone)” value is 36.0%, the Cmax of oxycodone is on record as 57.9 (±8.7) ng/mL, the “T50% Cmax of oxycodone” value was 1.6 (±0.4) h and the AUC0-t of oxycodone is listed as 130.6 (±25.6) h. * ng/mL. In addition, in data set [2], the “Simulated gastric fluid (pH 1.1): % remaining after 2 h/37° C.” value was 98%, the “Distilled water (pH 5.9): % remaining” value is on record as 100%, the “Simulated intestinal fluid (pH 6.8): % remaining after 2 h/37° C.” value was 91% and the “pH 10.0 buffer: % remaining” value is given as 66%.
`CCC1(c2cccc(OC(=O)CC(C)(C)CC(=O)NCC(=O)O)c2)CCCCN(C)C1` (centres unmarked) [Meptazinol-[3,3-dimethylglutaryl-glycine] ester]: the “Monkey Cmax (plasma meptazinol)” value in data set [3] (cynomolgus monkey, oral gavage of prodrug, meptazinol level) is 1.1 ng/mL. The “Monkey Cmax (plasma prodrug levels, in brackets)” value in data set [3] (setting [7]) is on record as 18 ng/mL. Further, in data set [4] (dog), the “Dog Cmax (plasma meptazinol)” value was determined as 0.5 ng/mL and the “Dog Cmax (plasma prodrug levels, in brackets)” value was determined as 29 ng/mL. For the same compound, the “2 h stability in pH7.4 buffer (37° C.), Conversion to meptazinol” value in data set [5] (pH 7.4 buffer, 2 h) is on record as 2%. Also, the “1 h stability in simulated gastric fluid (37° C.), Conversion to meptazinol” value in data set [5] (simulated gastric fluid, 1 h) is recorded as 4%. Moreover, in data set [5] (simulated intestinal fluid, 2 h), the “2 h stability in simulated intestinal fluid (37° C.), Conversion to meptazinol” value was 4%.
Consider `COc1ccc2c3c1O[C@H]1[C@@H](O)CC[C@H]4[C@@H](C2)N(C)CC[C@@]341.O=C(O)C(O)C(O)C(=O)O` [Dihydrocodeine Hydrogen Tartrate, reference compound], for which the “% change from vehicle-treated animals, small intestine” value in data set [6] (10 mg/kg) was −17.6%; in data set [6] (30 mg/kg) it was −29.8%; in data set [6] (100 mg/kg), −56.4%; in data set [6] (300 mg/kg) it was −67.7%. For the same compound, the “% change from vehicle-treated animals, total gut length” value in data set [6] (10 mg/kg) was −16.3%; in data set [6] (30 mg/kg), −30.5%; in data set [6] (100 mg/kg), −57.0%; in data set [6] (300 mg/kg), −68.0%.
As for `COc1ccc2c3c1O[C@H]1[C@@H](O)C=C[C@H]4[C@@H](C2)N(C)CC[C@@]341` [Codeine phosphate hemihydrate], the “% change from vehicle-treated animals, small intestine” value in data set [6] (10 mg/kg) is on record as −22.0%; in data set [6] (30 mg/kg), −32.1%; in data set [6] (100 mg/kg) it was −35.1%. For the same compound, the entries for the “% change from vehicle-treated animals, total gut length” value in data set [6] (10 mg/kg), in data set [6] (30 mg/kg) and in data set [6] (100 mg/kg) were −21.7%, −32.0% and −34.9%, respectively.
For the compound `CCC1(c2cccc(OC(=O)/C=C\C(=O)N[C@H](C(=O)O)C(C)C)c2)CCCCN(C)C1` (stereo partly drawn) [Meptazinol [malearyl-(S)-valine] ester], the “Monkey Cmax (plasma prodrug levels, in brackets)” value in data set [3] (setting [7]) is given as “BLQ”. In addition, the Cmax (in general, the peak of the concentration-time curve) in data set [4] (dog) was 6 ng/mL.
For the compound `CCC1(c2cccc(OC(=O)/C=C\C(=O)N[C@@H](Cc3ccccc3)C(=O)O)c2)CCCCN(C)C1` (stereo partly drawn) [Meptazinol [malearyl-(S)-phenylanine] ester], in data set [4] (dog), the “Dog Cmax (plasma prodrug levels, in brackets)” value is given as 1.7 ng/mL.
For `CCC1(c2cccc(OC(=O)CCCC(=O)N[C@H](C(=O)O)C(C)C)c2)CCCCN(C)C1` (stereo partly drawn) [Meptazinol [glutaryl-(S)-valine] ester], the “improvement in systemic levels of meptazinol” value in data set [3] (monkey, oral gavage) is given as “not seen in the monkey”. In addition, the “systemic levels of meptazinol versus expected Cmax after the drug itself” value in data set [4] (dog, oral gavage) is listed as “improved systemic levels of meptazinol”. For the same compound, the “Dog Cmax (plasma prodrug levels, in brackets)” value in data set [4] (dog) was 2.8 ng/mL.
As to `COc1ccc2c3c1O[C@H]1C(OC(=O)CCC(=O)N[C@@H](Cc4ccccc4)C(=O)O)=CC[C@@]4(O)[C@@H](C2)N(C)CC[C@]314` [Oxycodone-Succinyl-Phe Enol Ester, oxycodone-[succinyl-(S)-phenylalanine]enol ester], in data set [2], the “Simulated gastric fluid (pH 1.1): % remaining after 2 h/37° C.” value is reported as 99%, the “Distilled water (pH 5.9): % remaining” value is listed as 100%, the “Simulated intestinal fluid (pH 6.8): % remaining after 2 h/37° C.” value was 3% and the “pH 10.0 buffer: % remaining” value is reported as 65%.
As to `CCC1(c2cccc(OC(=O)CC(=O)Nc3ccc(C(=O)O)cc3)c2)CCCCN(C)C1` (centres unmarked) [Meptazinol [malonyl-PABA] ester], in data set [4] (dog), the “Dog Cmax (plasma meptazinol)” value is 2.1 ng/mL.
For the compound `COc1ccc2c3c1OC1C(OC(=O)CCC(=O)N[C@@H](CC(C)C)C(=O)O)=CC[C@@]4(O)[C@@H](C2)N(C)CC[C@]314` (stereo partly drawn) [Oxycodone-Succinyl-Leu Enol Ester, oxycodone-[succinyl-(S)-leucine]enol ester], in data set [1], the “F % (absolute oral bioavailability of oxycodone)” value amounted to 39.3%, the Cmax of oxycodone is on record as 60.9 (±15.0) ng/mL, the “T50% Cmax of oxycodone” value is 1.9 (±0.2) h and the AUC0-t of oxycodone is listed as 142.5 (±28.4) h. * ng/mL. In addition, in data set [2], the “Simulated gastric fluid (pH 1.1): % remaining after 2 h/37° C.” value is 98%, the “Distilled water (pH 5.9): % remaining” value is given as 100%, the “Simulated intestinal fluid (pH 6.8): % remaining after 2 h/37° C.” value is listed as 78% and the “pH 10.0 buffer: % remaining” value is 68%.
Turning to `CCC1(c2cccc(OC(=O)CC(C)(C)CC(=O)N[C@H](C(=O)O)C(C)C)c2)CCCCN(C)C1` (stereo partly drawn) [Meptazinol-[3,3-dimethyl-glutaryl-(S)-valine] ester], the Cmax was determined as 43 ng/mL in data set [3] (plasma, cynomolgus monkey, oral gavage of prodrug, prodrug level, BLQ = below 0.5 ng/mL, read-out: Monkey Cmax (plasma prodrug levels, in brackets)) and 116 ng/mL in data set [4] (dog). Also, the “systemic levels of the prodrug” value in data set [4] (oral gavage) is recorded as “good systemic levels of the prodrug”.
On to `CC[C@H](C)[C@H](NC(=O)CCCC(=O)OC1=CC[C@@]2(O)[C@H]3Cc4ccc(OC)c5c4[C@@]2(CCN3C)[C@H]1O5)C(=O)O` [Oxycodone-Glutaryl-Ile Enol Ester, oxycodone-[glutaryl-(S)-isoleucine]enol ester], for which, in data set [1], the “F % (absolute oral bioavailability of oxycodone)” value is listed as 37.4%, the Cmax of oxycodone is 46.8 (±15.0) ng/mL, the “T50% Cmax of oxycodone” value is recorded as 2.8 (±0.2) h and the AUC0-t of oxycodone is recorded as 135.7 (±27.9) h. * ng/mL. Besides, in data set [2], the “Simulated gastric fluid (pH 1.1): % remaining after 2 h/37° C.” value is 98%, the “Distilled water (pH 5.9): % remaining” value is 100%, the “Simulated intestinal fluid (pH 6.8): % remaining after 2 h/37° C.” value is given as 80% and the “pH 10.0 buffer: % remaining” value is 80%.
Turning to `CCC1(c2cccc(OC(=O)CC(=O)NC(C(=O)O)C(C)C)c2)CCCCN(C)C1` [Meptazinol [malonyl-(S)-valine] ester], in data set [4] (dog), the “Dog Cmax (plasma prodrug levels, in brackets)” value was determined as 44 ng/mL.
In the case of `COc1ccc2c3c1O[C@H]1C(OC(=O)CCCC(=O)N[C@H](C(=O)O)C(C)C)=CC[C@@]4(O)[C@@H](C2)N(C)CC[C@]314` [Oxycodone-Glutaryl-Val Enol Ester, oxycodone-[glutaryl-(S)-valine] enol ester], the “T50% Cmax of oxycodone” value in data set [1] is reported as 2.9 (±0.3) h. Besides, in data set [2], the “Simulated gastric fluid (pH 1.1): % remaining after 2 h/37° C.” value is on record as 98%, the “Distilled water (pH 5.9): % remaining” value is given as 100%, the “Simulated intestinal fluid (pH 6.8): % remaining after 2 h/37° C.” value is listed as 87% and the “pH 10.0 buffer: % remaining” value was 75%.
Regarding `COc1ccc2c3c1O[C@H]1C(OC(=O)CCC(=O)N4CCC[C@H]4C(=O)O)=CC[C@@]4(O)[C@@H](C2)N(C)CC[C@]314` [Oxycodone succinyl proline ester], in data set [1], the “F % (absolute oral bioavailability of oxycodone)” value came out at 20.8%, the Cmax of oxycodone is recorded as 20.1 (±4.60) ng/mL, the “T50% Cmax of oxycodone” value is 3.4 (±0.9) h and the AUC0-t of oxycodone is 75.2 (±13.7) h. * ng/mL. Moreover, in data set [2], the “Simulated gastric fluid (pH 1.1): % remaining after 2 h/37° C.” value is recorded as 98%, the “Distilled water (pH 5.9): % remaining” value is on record as 100%, the “Simulated intestinal fluid (pH 6.8): % remaining after 2 h/37° C.” value is recorded as 96% and the “pH 10.0 buffer: % remaining” value was 80%.
Turning to `CCC1(c2cccc(OC(=O)/C=C/C(=O)N[C@H](C(=O)O)C(C)C)c2)CCCCN(C)C1` (stereo partly drawn) [Meptazinol-[fumaryl-(S)-valine] ester], the “Monkey Cmax (plasma prodrug levels, in brackets)” value in data set [3] (setting [7]) is recorded as “BLQ”. The “Dog Cmax (plasma prodrug levels, in brackets)” value in data set [4] (dog) was “BLQ”.
